How the values were obtained:
[1] = Cleanout test (residue in polyethylene bottles, acetonitrile extract, HPLC); format: physicochemical; details: for Cleanout rating (concentration of thifensulfuron-methyl in the acetonitrile solution): lower rating = more effective cleanout
Experimental: The test was conducted by dispersing in water a sample to produce a concentration that is normally used when applying the herbicide: 25% thifensulfuron-methyl. The sample was added to tap water (300 mL) in a 400 mL beaker and magnetically stirred for 2 minutes. The mixture was then stirred for 2 minutes, whereupon the resulting dispersion was dispensed in three 100 mL aliquots to 4-oz (118 mL) polyethylene bottles. The bottles were capped, inverted twice and allowed to stand overnight.
After standing overnight, each individual bottle was inverted twice and the liquid contents were then poured out. Tap water (10 mL) was added and the bottle was inverted until all sediment was re-suspended, whereupon the contents were poured out. Tap water (100 mL) was added and the bottle was inverted twice and then allowed to stand undisturbed for 10 minutes. The bottle was inverted twice more and the contents were poured out. Acetonitrile (10 mL) was added to the bottle to extract any remaining material. The acetonitrile solution was analyzed by reversed-phase liquid chromatography with UV detection. The cleanout rating (the concentration of thifensulfuron-methyl herbicide in the acetonitrile solution) is reported in % in Table 6 below.

[2] = Viscosity (stated in words, no method given); format: physicochemical

Row | Structure (SMILES) | Cleanout rating (concentration of thifensulfuron-methyl in the acetonitrile solution) ([1]; OD formulation) | Cleanout rating (concentration of thifensulfuron-methyl in the acetonitrile solution) ([1]; SG formulation) | Cleanout rating (concentration of thifensulfuron-methyl in the acetonitrile solution) ([1]; WG formulation) | Viscosity, in words ([2]; listed as thifensulfuron-methyl in amorphous state) | Cleanout properties, in words ([1]; compared with known amorphous thifensulfuron-methyl product) | Viscosity, in words ([2]; listed as crystalline modification I of thifensulfuron-methyl)
1 | COC(=O)c1sccc1S(=O)(=O)NC(=O)Nc1nc(C)nc(OC)n1 [Amorphous thifensulfuron-methyl, methyl 3-(4-methoxy-6-methyl-1,3,5-triazin-2-ylcarbamoylsulfamoyl)thiophene-2-carboxylate, reference compound] | 26% | 10% | 13% | highly viscous | – | –
2 | COC(=O)c1sccc1S(=O)(=O)NC(=O)Nc1nc(C)nc(OC)n1 [Thifensulfuron-methyl, crystalline modification I] [methyl 3-(4-methoxy-6-methyl-1,3,5-triazin-2-ylcarbamoylsulfamoyl)thiophene-2-carboxylate] | 5% | 0.1% | 2% | – | markedly superior cleanout properties | significant decrease in its viscosity

Reference: patent US9663501B1, “Process for preparing a novel crystalline form of thifensulfuron-methyl and use of the same” (ROTAM AGROCHEM INTERNATIONAL COMPANY LIMITED, priority 2015, dated 2017)
